How the values were obtained:
[1] = UV-Vis host-guest titration, association constant; format: binding
Description: (§1) Path length of the quartz cell was 1 cm. For UV-vis titrations, a stock solution of host was prepared (2.2×10^−3 M) in dichloromethane (DCM) and serially diluted to the required concentrations. Working solutions of tetrabutylammonium (TBA) anion salts or guest molecules were prepared in the same manner Host−guest titrations used solutions of guest prepared in the working concentration of host solution, according to the procedure of Thordarson, 2011.
(§2) UV-vis spectroscopic host−guest titrations were performed in accordance with the methodologies of Thordarson, 2011. Solutions of host in dichloromethane were prepared. Solutions of guest were then prepared in the host solution. Aliquots of guest in host solution were added to host solution and sequentially analysed until a known molar equivalent of guest was added. The amount of guest added per aliquot was ascertained by a preliminary screening experiment; strong association constants required smaller molar equivalents so more information could be collected. […] The inverse is true for weaker binding interactions. Molar equivalents between 0.1-5 typically provided adequate information for modelling. The data was then used to simulate binding isotherms using www.supramolecular.org (Hibbert and Thordarson, 2016). The data was fitted to 1:1, 1:2 and 2:1 equilibria making no assumptions about the cooperativity of the binding interactions and modelled using different algorithms. These experiments mainly used the Nelder-Mead (Simplex) method.
UV-Vis spectroscopy binding studies were used to determine the association constant for the host (9)−PFOA complex.
(§3) A host solution of host (9) in dichloromethane was monitored using UV-Vis analysis as 0.5-10 equivalents of each PFAS was added. […] The data was processed using Bindfit isotherm simulators using both Nelder-Mead and L-BFGS-B methods (Thordarson, 2011).
(§4) To highlight any potential binding preferences across the PFCAs from the host molecules, triplicates of host−guest addition titrations were performed using host (9) and the TBA salts of the nine different deprotonated PFCAs.

[2] = PFCA guest response across the nine PFCAs (UV-Vis, RGB, one-way ANOVA variance); conditions: dichloromethane
Description: Experiments were performed at concentrations that could be monitored by the naked eye for practical sensing of PFAS in the field. Complexes of hosts (9), (11) and (12) were formed with the nine different perfluorocarboxylic acids (PFCAs) shown in Table 2 above and the colours of each host−PFCA complex were photographed in a lightbox and analysed using ImageJ software RGB analysis. Pixels of the solution were chosen at random to provide an RGB value. Multiple RGB values were recorded for each host−PFCA solution, and an average colour can be produced. From those values an RGB parameter was used to give a response value for modelling (Tahir et al., 2016).
After preliminary screenings, UV-Vis spectra were collected before and after the addition of 1 molar equivalent of each PFCA for each host, and the degree of complexation was noted by shifts in the Soret bands and formation of a peak at ca. 650 nm. To eliminate dilution effects, PFCA guest solutions were prepared in the equivalent concentration of host. If there was a notable host−guest interaction for a particular PFCA, the host−guest binding was investigated with more rigorous UV-Vis experiments, binding studies, and further colour analyses. Throughout these investigations, PFOA was considered the “average” PFCA both because of its position in the range of PFCA sizes and because its prevalence is often an indication of broader PFAS contamination. In any experiment where binding was further investigated for a particular PFCA, it was typically replicated with PFOA for comparison.
One-way factorial ANOVA was used to examine the dependence (or independence) of two or more factors affecting the dependent variable concurrently, in the present case the change in absorption, or the change in RGB response across the tested PFCAs, or across the different hosts. This analysis was used to determine the variance in the responses of each host across the different PFCAs. […]

[3] = UV-Vis host-guest titration, association constant; format: binding; remark: listed apart in the source
Description: as §1, §2, §3, §4
Host (12) was also modelled for secondary binding interactions in the presence of additional guest (Table 9).

[4] = Colorimetric calibration chart, RGB response to known PFOA concentrations; conditions: PFOA 0.7 ppm, dichloromethane
Description: The host molecules were combined with known concentrations of PFOA to provide RGB colour responses, which were used to create a colorimetric calibration chart that could be trialled as an indicator for estimating the total concentration of a range of any PFCAs. Solutions of each host molecule (1.00×10^−5 M) were prepared in dichloromethane. Solutions of PFOA in dichloromethane were prepared across a range of concentrations (0→16 ppm, 4.00×10^−5 M). Each host (2 mL) was combined with each PFOA concentration (1 mL, final concentration 0→1.33×10^−5 M) and photographed under equivalent lighting conditions. The average colour of each solution was then found using ImageJ RGB analysis, and a colour chart was produced.
For this reason, parametrization of the RGB values can be useful for interpreting results. The RGB response parameter can be calculated using the RGB values of the “blank” host solution (Šafranko et al., 2019) and the effective intensities of the individual RGB values of a sample (Tahir et al., 2016):
Here, H, indicates the values for the host solution, and S, indicates the response for a sample containing a PFCA, so that ΔR, ΔG, and ΔB give the colour differences. The RGB parameter is the response due to the relative difference in the RGB intensities:
The RGB values collected for each host with a range of known concentrations of PFOA in dichloromethane were parameterized and used to determine a relationship between concentration of analyte and RGB response values. […] The relationship between RGB response values and concentrations of PFOA could now be tested for accuracy in determining the concentration of any PFCA.

[5] = host (9) in dichloromethane, triplicate, TBA salt and acid, Bindfit
[6] = short, medium and long chain sensor molecules with PFOA

Q: For O=C(Nc1ccccc1-c1c2nc(c(-c3ccccc3NC(=O)C(F)(F)C(F)(F)C(F)(F)C(F)(F)C(F)(F)C(F)(F)C(F)(F)F)c3ccc([nH]3)c(-c3ccccc3NC(=O)C(F)(F)C(F)(F)C(F)(F)C(F)(F)C(F)(F)C(F)(F)C(F)(F)F)c3nc(c(-c4ccccc4NC(=O)C(F)(F)C(F)(F)C(F)(F)C(F)(F)C(F)(F)C(F)(F)C(F)(F)F)c4ccc1[nH]4)C=C3)C=C2)C(F)(F)C(F)(F)C(F)(F)C(F)(F)C(F)(F)C(F)(F)C(F)(F)F [host (9), α,α,α,α-5,10,15,20-tetrakis(2-(pentadecafluorooctanoylamino)phenyl)porphyrin], which “association constant (Ka)” value ([1]; host 1.01×10^−6 M in dichloromethane, TBAPFO aliquots, 1:1, Nelder-Mead and L-BFGS-B) is on record?
A: ~2.8e+06 M⁻¹

Q: What about the “K value (averaged association constant Ka)” value [1, 5] of the same compound?
A: 109574

Q: And the K [1, 6]?
A: 1.77e+06 M⁻¹

Q: And the “colorimetric response to all nine PFCAs” value [2]?
A: colorimetric response was visible

Q: What about the “K value (averaged association constant Ka)” value [3, 5] of the same compound?
A: 1010

Q: And the “ΔE between host and lowest PFOA concentration” value [4]?
A: 11

Q: For O=C(Nc1ccccc1-c1c2nc(c(-c3ccccc3NC(=O)C(F)(F)C(F)(F)C(F)(F)C(F)(F)C(F)(F)C(F)(F)C(F)(F)C(F)(F)C(F)(F)C(F)(F)C(F)(F)F)c3ccc([nH]3)c(-c3ccccc3NC(=O)C(F)(F)C(F)(F)C(F)(F)C(F)(F)C(F)(F)C(F)(F)C(F)(F)C(F)(F)C(F)(F)C(F)(F)C(F)(F)F)c3nc(c(-c4ccccc4NC(=O)C(F)(F)C(F)(F)C(F)(F)C(F)(F)C(F)(F)C(F)(F)C(F)(F)C(F)(F)C(F)(F)C(F)(F)C(F)(F)F)c4ccc1[nH]4)C=C3)C=C2)C(F)(F)C(F)(F)C(F)(F)C(F)(F)C(F)(F)C(F)(F)C(F)(F)C(F)(F)C(F)(F)C(F)(F)C(F)(F)F [host (12), α,α,α,α-5,10,15,20-tetrakis(2-(tricosafluorododecanoylamino)phenyl) porphyrin], which K ([1]; 1 Host:1 Guest binding mode) is on record?
A: 1.58 × 10^5

Q: What about the K11 ([1]; 1 Host:2 Guest binding mode) of the same compound?
A: 1.49 × 10^7

Q: What about the K12 ([1]; 1 Host:2 Guest binding mode) of the same compound?
A: 1.17 × 10^2

Q: And the K [1, 6]?
A: 1.67e+06 M⁻¹

Q: What about the “colorimetric response to all nine PFCAs” value [2] of the same compound?
A: provided a colorimetric response

Q: And the K ([3]; 1 Host:1 Guest binding mode)?
A: 3.76 × 10^4

Q: And the K11 ([3]; 1 Host:2 Guest binding mode)?
A: 1.76 × 10^6

Q: What about the K12 ([3]; 1 Host:2 Guest binding mode) of the same compound?
A: 7.92 × 10^4

Q: And the K11 ([3]; 2 Host:1 Guest binding mode)?
A: 2.37 × 10^5

Q: And the K21 ([3]; 2 Host:1 Guest binding mode)?
A: 6.69 × 10^4

Q: And the “ΔE between host and lowest PFOA concentration” value [4]?
A: 24

Reference: patent US20240166658A1, “PORPHYRIN DERIVATIVES AND USES THEREOF” (University of Tasmania, priority 2021, published 2024)
